≈ marks a conversion by molar mass, not a printed value.
Key:
[1] = Solubility; assay type: physicochemical
[2] = biological target: T1, human adenosine A3 receptor (Homo sapiens, UniProt P0DMS8); assay: Human adenosine A3 receptor binding ([125I]AB-MECA, CHO-hA3 membranes); conditions: CHO-hA3 membrane, 0.5 nM [125I]AB-MECA
T1 construct: host or cells: CHO cells (CHO-hA3), membrane preparation
T1 sequence (P0DMS8 1-318): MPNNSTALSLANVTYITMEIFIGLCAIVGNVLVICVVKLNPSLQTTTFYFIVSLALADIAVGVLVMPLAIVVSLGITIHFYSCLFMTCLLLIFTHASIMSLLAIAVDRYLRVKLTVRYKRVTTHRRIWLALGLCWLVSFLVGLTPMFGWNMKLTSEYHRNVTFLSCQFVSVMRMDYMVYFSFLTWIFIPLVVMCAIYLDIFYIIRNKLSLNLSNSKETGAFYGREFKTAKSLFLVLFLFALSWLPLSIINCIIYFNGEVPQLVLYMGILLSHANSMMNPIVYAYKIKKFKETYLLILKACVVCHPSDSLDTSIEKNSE
Method: Human Adenosine A3 Receptor Binding
Preparing membrane suspension: ovarium cells of cloned […] hamster expressing human A3 receptor (further: CHO-hA3) are appropriately cultured. Achieving confluent cell layer, the cultivating liquid is removed from the cells by washing them with 37° C. PBS, then the cell are suspended in ice cold PBS, washed 3 times with PBS, centrifuged (1000×g 10 minutes) (Sigma 3K30) and homogenated using teflon homogenizer (B. Braun Potter S) at 1500/min rotation speed, for 15 sec. in the following buffer: 50 mM Tris, 10 mM MgCl2, 1 mM EDTA, pH 8.0. The homogenate is centrifuged (43.000 g, 10 min). The precipitate is suspended in the above buffer, protein concentration 0.1 mg/ml (Bradford method). Aliquots of the membrane preparatum are store at −80° C. hA3-CHO membrane preparation from Perkin Elmer was used alternatively.
Binding protocol: incubate CHO-hA3 membrane preparation (2 μg protein content) in the presence of the test material and 0.5 nM [^125I]AB-MECA (4-amino-3-iodo-benzyl-5′-N-methylcarboxamide-adenosine) (100.000 cpm) in incubation buffer (50 mM Tris, 10 mM MgCl2, 1 mM EDTA, 3 U/mL adenosine deaminase, pH 8.0). Define the non-specific radioligand binding in the presence of 100 μM R-PIA (N^6[L-2-phenylisopropyl]adenosine). Total volume of the reaction is 50 μL for 60 min at room temperature. […] Detect the radioactivity in gamma-counter (1470 Wizard, Wallac). […]
Based on the radioisotope saturation curves using Scatchard analysis (G. Scatchard, Ann. N.Y. Acad. Sci. 51:660, 1949) the dissociation constant (Kd) of the radioligand [^125I]AB-MECA on the CHO-hA3 membrane preparate is determined. From the Kd values, applying the Cheng-Prusoff equation (Y. J. Cheng and W. H. Prusoff, Biochem. Pharmacol. 22:3099, 1973) the affinity constants (Ki) of the test compounds are calculated from their IC50 values.

[3] = tested on: Ovalbumin induced cell migration; assay: Allergic mouse model (ovalbumin induced cell migration); assay type: in vivo; conditions: % inhibition (full), p.o. mice 24 h, 10 mg/kg CMC
Method: Male BalbC mice of 20-25 g body weight are used for the experiments. The animals are first allergized with ovalbumin, then three weeks after the first ovalbumin injection they are involved into the experiment. On the day of the experiment the mice are treated (per os) with the experimental material (or with the vehicle containing no active ingredient), then after a suitable waiting period they are narcotized. After surgical opening of the trachea, 10 microliter of 1% ovalbumin solution is injected into the trachea.
The control group receives vehicle (physiological salt solution) into the trachea. After surgical closing of the trachea and treatment of the wound, the animals are separated and kept under their usual life conditions for 24 h.
After 24 hours the animals are over narcotized, the trachea is opened again and the lung is washed with buffer solution. The buffer solution is centrifuged, the cell sediment is resuspended again, and then the cells are counted. The total cell number is determined and the different leukocytes are sorted on the bases of the morphology. To determine the effectivity of the experimental material, the inhibition % is calculated in comparison to the control group. To determine the significance of the effect, statistical evaluation is carried out.

| solubility ([1]; pH 1, simulated gastric fluid) [µg/mL] | solubility ([1]; pH 6.5, aqueous buffer) [µg/mL] | solubility ([1]; pH 7.5, aqueous buffer) [µg/mL] | IC50 [2] [nM] | Structure (SMILES) | Inhibition of cell migration [3] [%] |
| --- | --- | --- | --- | --- | --- |
| 500 (≈ 1020 µM) | 0.2 (≈ 0.408 µM) | 2 (≈ 4.08 µM) | 38 | COc1cccc(-c2nc3c(C#N)c(NCc4ccccc4)c4cc(N5CCOCC5)ccc4n3n2)c1 [Example 1, 2-(3-methoxyphenyl)-7-(morpholin-4-yl)-9-benzylamino-10-cyano-s-triazolo[1,5-a]quinoline] | 81 |
| 3000 (≈ 6330 µM) | 0.5 (≈ 1.06 µM) | 5 (≈ 10.6 µM) | 7.7 | CN1CCN(c2ccc3c(c2)c(NCc2ccccc2)c(C#N)c2nc(-c4ccccc4)nn23)CC1 [Example 17] | 88 |
| 2500 (≈ 5090 µM) | 0.5 (≈ 1.02 µM) | 13 (≈ 26.4 µM) | 11 | CN1CCN(c2ccc3c(c2)c(NCc2ccccc2)c(C#N)c2nc(-c4ccc(F)cc4)nn23)CC1 [Example 18] | 57 |
